Data reported in patent US10329295B2, “Pyrrolotriazine inhibitors of IRAK4 activity” (MERCK SHARP & DOHME CORP., priority 2015, dated 2019).
pIC50: −log10 of the molar value. Counter-ions that a name gives are not always drawn.

Target: GST tagged IRAK4 (Homo sapiens (Human), UniProt Q9NWZ3)
Assay: IRAK4 Kinase Assay (IMAP fluorescence polarization)
Format: biochemical
Settings: 0.5 nM GST tagged IRAK4, 100 μM ATP, 30 minutes at 25° C.
How it was run: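 Phosphorylation of a fluorescent peptide (100 nM) was detected by IMAP nanoparticle binding as increased fluorescence polarization. The enzyme was GST-tagged IRAK4 at 0.5 nM, with 100 μM ATP, 1 mM MgCl2 and Tris-HCl pH 7.2. ATP-initiated reactions ran 30 minutes at 25° C.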

Sequence of GST tagged IRAK4 (Q9NWZ3 whole entry): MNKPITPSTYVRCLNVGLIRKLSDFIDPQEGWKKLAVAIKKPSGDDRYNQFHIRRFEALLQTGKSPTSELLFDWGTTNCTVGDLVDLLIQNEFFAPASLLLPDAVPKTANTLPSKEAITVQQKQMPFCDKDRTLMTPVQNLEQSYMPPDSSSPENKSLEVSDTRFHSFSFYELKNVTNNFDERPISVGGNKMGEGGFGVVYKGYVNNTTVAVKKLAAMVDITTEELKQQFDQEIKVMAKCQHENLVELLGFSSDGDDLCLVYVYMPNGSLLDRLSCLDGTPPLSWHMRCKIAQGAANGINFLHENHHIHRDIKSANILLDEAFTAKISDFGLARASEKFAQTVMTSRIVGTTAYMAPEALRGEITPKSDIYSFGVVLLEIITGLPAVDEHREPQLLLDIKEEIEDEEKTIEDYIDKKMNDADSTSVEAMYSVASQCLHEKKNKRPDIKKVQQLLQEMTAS

Row | SMILES | pIC50
1 | CCn1cc(NC(=O)c2ccc3cnc(N[C@@H]4CCCC[C@@H]4N)nn23)cn1 [Example 166, 2-{[(1R,2S)-2-Aminocyclohexyl]amino}-N-(1-ethyl-1H-pyrazol-4-yl)pyrrolo[2,1-f][1,2,4]triazine-7-carboxamide] | 7.42
2 | Cn1cc(NC(=O)c2ccc3cnc(N4C[C@H](N)C[C@@H](F)C4)nn23)c(C(F)F)n1 [Example 156, 2-[(3R,5R)-3-amino-5-fluoropiperidin-1-yl]-N-[3-(difluoromethyl)-1-methyl-1H-pyrazol-4-yl]pyrrolo[2,1-f][1,2,4]triazine-7-carboxamide trifluoroacetate] | 9.30
3 | N[C@H]1CCCC[C@H]1Nc1ncc2ccc(C(=O)Nc3ccccc3Cl)n2n1 [Example 40, 2-{[(1R,2S)-2-aminocyclohexyl]amino}-N-(2-chlorophenyl)pyrrolo[2,1-f][1,2,4]triazine-7-carboxamide trifluoroacetate] | 8.52
4 | N#Cc1ccccc1NC(=O)c1ccc2cnc(N3C[C@@H]4CC[C@H]3CN4)nn12 (single isomer, unassigned) [Example 74, N-(2-cyanophenyl)-2-[(1S,4S)- or (1R,4R)-2,5-diazabicyclo[2.2.2]oct-2-yl]pyrrolo[2,1-f][1,2,4]triazine-7-carboxamide trifluoroacetate] | 6.07
5 | Cn1cc(NC(=O)c2ccc3cnc(N4C[C@H]5CC[C@@H]4CN5)nn23)c(C(F)(F)F)n1 (single isomer, unassigned) [Example 171, 2-[(1S,4S)- or (1R,4R)-2,5-diazabicyclo[2.2.2]oct-2-yl]-N-[1-methyl-3-(trifluoromethyl)-1H-pyrazol-4-yl]pyrrolo[2,1-f][1,2,4]triazine-7-carboxamide] | 7.19
6 | N[C@@H]1[C@H](Nc2ncc3ccc(C(=O)Nc4ccsc4Br)n3n2)CCCC1(F)F [Example 94, 2-{[(1R,2R)-2-amino-3,3-difluorocyclohexyl]amino}-N-(2-bromothiophen-3-yl)pyrrolo[2,1-f][1,2,4]triazine-7-carboxamide trifluoroacetate] | 5.38
7 | O=C(Nc1ccccc1C(F)F)c1ccc2cnc(N3C[C@@H]4CC[C@H]3CN4)nn12 (single isomer, unassigned) [Example 61, 2-[(1S,4S)- or (1R,4R)-2,5-diazabicyclo[2.2.2]oct-2-yl]-N-[2-(difluoromethyl)phenyl]-pyrrolo[2,1-f][1,2,4]triazine-7-carboxamide trifluoroacetate] | 5.00
8 | Cn1cc(NC(=O)c2ccc3cnc(N4C[C@H](N)C[C@H](F)C4)nn23)c(C(F)F)n1 [Example 163, 2-[(3R,5S)-3-amino-5-fluoropiperidin-1-yl]-N-[3-(difluoromethyl)-1-methyl-1H-pyrazol-4-yl]pyrrolo[2,1-f][1,2,4]triazine-7-carboxamide trifluoroacetate] | 9.15
9 | O=C(Nc1ccccc1Br)c1ccc2cnc(N3C[C@@H]4CC[C@H]3CN4)nn12 (single isomer, unassigned) [Example 84, N-(2-bromophenyl)-2-[(1S,4S)- or (1R,4R)-2,5-diazabicyclo[2.2.2]oct-2-yl]pyrrolo[2,1-f][1,2,4]triazine-7-carboxamide trifluoroacetate] | 5.11
10 | O=C(Nc1ccsc1Cl)c1ccc2cnc(N3C[C@@H]4CC[C@H]3CN4)nn12 (single isomer, unassigned) [Example 53, N-(2-chlorothiophen-3-yl)-2-[(1S,4S)- or (1R,4R)-2,5-diazabicyclo[2.2.2]oct-2-yl]pyrrolo[2,1-f][1,2,4]triazine-7-carboxamide trifluoroacetate] | 5.79
11 | Cn1cc(NC(=O)c2ccc3cnc(N4C[C@@H]5CNC[C@H]4C5)nn23)c(C#N)n1 (single isomer, unassigned) [Example 135, N-(3-cyano-1-methyl-1H-pyrazol-4-yl)-2-[(1R,5S)- or (1S,5R)-3,6-diazabicyclo[3.2.1]oct-6-yl]pyrrolo[2,1-f][1,2,4]triazine-7-carboxamide] | 6.06
12 | O=C(Nc1ccsc1Br)c1ccc2cnc(N3C[C@@H]4CC[C@H]3CN4)nn12 (single isomer, unassigned) [Example 48, N-(2-bromothiophen-3-yl)-2-[(1S,4S)- or (1R,4R)-2,5-diazabicyclo[2.2.2]oct-2-yl]pyrrolo[2,1-f][1,2,4]triazine-7-carboxamide trifluoroacetate] | 5.78
13 | Cn1cc(NC(=O)c2ccc3cnc(N4C[C@H]5CC[C@@H]4CN5)nn23)c(Br)n1 (single isomer, unassigned) [Example 64, N-(3-bromo-1-methyl-1H-pyrazol-4-yl)-2-[(1S,4S)- or (1R,4R)-2,5-diazabicyclo[2.2.2]oct-2-yl]pyrrolo[2,1-f][1,2,4]triazine-7-carboxamide trifluoroacetate] | 6.91
14 | N#Cc1cscc1NC(=O)c1ccc2cnc(N[C@@H]3CCCNC3)nn12 [Example 145, N-(4-cyanothiophen-3-yl)-2-[(3R)-piperidin-3-ylamino]pyrrolo[2,1-f][1,2,4]triazine-7-carboxamide trifluoroacetate] | 8.52
15 | O=C(Nc1ccsc1Cl)c1ccc2cnc(N3C[C@H]4CC[C@@H]3CN4)nn12 (single isomer, unassigned) [Example 54, N-(2-chlorothiophen-3-yl)-2-[(1S,4S)- or (1R,4R)-2,5-diazabicyclo[2.2.2]oct-2-yl]pyrrolo[2,1-f][1,2,4]triazine-7-carboxamide trifluoroacetate] | 6.09
16 | Cn1cc(NC(=O)c2ccc3cnc(N4CCCNCC4)nn23)c(C(F)F)n1 [Example 15, 2-(1,4-diazepan-1-yl)-N-[3-(difluoromethyl)-1-methyl-1H-pyrazol-4-yl]pyrrolo[2,1-f][1,2,4]triazine-7-carboxamide trifluoroacetate] | 8.22
17 | N#Cc1cscc1NC(=O)c1ccc2cnc(N3CC4CCC3CN4)nn12 (stereo not shown) [Example 36, N-(4-cyanothiophen-3-yl)-2-(2,5-diazabicyclo[2.2.2]oct-2-yl)pyrrolo[2,1-f][1,2,4]triazine-7-carboxamide trifluoroacetate] | 6.37
18 | N#Cc1sccc1NC(=O)c1ccc2cnc(N3CCC[C@@H](N)C3)nn12 [Example 141, 2-[(3R)-3-aminopiperidin-1-yl]-N-(2-cyanothiophen-3-yl)pyrrolo[2,1-f][1,2,4]triazine-7-carboxamide trifluoroacetate] | 7.59
19 | O=C(Nc1ccccc1Cl)c1ccc2cnc(N3C[C@@H]4CC[C@H]3CN4)nn12 (single isomer, unassigned) [Example 65, N-(2-chlorophenyl)-2-[(1S,4S)- or (1R,4R)-2,5-diazabicyclo[2.2.2]oct-2-yl]pyrrolo[2,1-f][1,2,4]triazine-7-carboxamide trifluoroacetate] | 5.69
20 | Cn1cc(NC(=O)c2ccc3cnc(N4C[C@H]5CN[C@H](C5)C4)nn23)c(C(F)F)n1 (single isomer, unassigned) [Example 104, 2-[(1S,5S)- or (1R,5R)-3,6-diazabicyclo[3.2.1]oct-3-yl]-N-[3-(difluoromethyl)-1-methyl-1H-pyrazol-4-yl]pyrrolo[2,1-f][1,2,4]triazine-7-carboxamide] | 7.55
21 | Cn1cc(NC(=O)c2ccc3cnc(N[C@@H]4CCCC[C@@H]4O)nn23)c(C(F)(F)F)n1 [Example 3, 2-{[(1R,2S)-2-hydroxycyclohexyl]amino}-N-[1-methyl-3-(trifluoromethyl)-1H-pyrazol-4-yl]pyrrolo[2,1-f][1,2,4]triazine-7-carboxamide trifluoroacetate] | 6.49
22 | Cn1cc(NC(=O)c2ccc3cnc(N4C5CCC4CNC5)nn23)c(C#N)n1 [Example 111, N-(3-cyano-1-methyl-1H-pyrazol-4-yl)-2-(3,8-diazabicyclo[3.2.1]oct-8-yl)pyrrolo[2,1-f][1,2,4]triazine-7-carboxamide trifluoroacetate] | 7.92
23 | Cn1cc(NC(=O)c2ccc3cnc(N[C@@H]4CCCC[C@@H]4O)nn23)c(C#N)n1 [Example 122, N-(3-cyano-1-methyl-1H-pyrazol-4-yl)-2-{[(1R,2S)-2-hydroxycyclohexyl]amino}-pyrrolo[2,1-f][1,2,4]triazine-7-carboxamide trifluoroacetate] | 7.70
24 | Cn1cc(NC(=O)c2ccc3cnc(N4C5CCC4CNC5)nn23)c(C(F)F)n1 [Example 121, 2-(3,8-diazabicyclo[3.2.1]oct-8-yl)-N-[3-(difluoromethyl)-1-methyl-1H-pyrazol-4-yl]pyrrolo[2,1-f][1,2,4]triazine-7-carboxamide trifluoroacetate] | 9.30
25 | Cn1cc(NC(=O)c2ccc3cnc(N[C@@H]4CCCCNC4)nn23)c(C(F)F)n1 (single isomer, unassigned) [Example 90, 2-[(3S)- or (3R)-azepan-3-ylamino]-N-[3-(difluoromethyl)-1-methyl-1H-pyrazol-4-yl]pyrrolo[2,1-f][1,2,4]triazine-7-carboxamide trifluoroacetate] | 9.15
26 | O=C(Nc1cscc1Cl)c1ccc2cnc(N3C[C@@H]4CC[C@H]3CN4)nn12 (single isomer, unassigned) [Example 107, N-(4-chlorothiophen-3-yl)-2-[(1S,4S)- or (1R,4R)-2,5-diazabicyclo[2.2.2]oct-2-yl]pyrrolo[2,1-f][1,2,4]triazine-7-carboxamide trifluoroacetate] | 6.43
27 | Cn1cc(NC(=O)c2ccc3cnc(N4CCCNCC4)nn23)c(Br)n1 [Example 67, N-(3-bromo-1-methyl-1H-pyrazol-4-yl)-2-(1,4-diazepan-1-yl)pyrrolo[2,1-f][1,2,4]triazine-7-carboxamide trifluoroacetate] | 7.41
28 | Cn1cc(NC(=O)c2ccc3cnc(N4C[C@H]5CN[C@H](C5)C4)nn23)c(C(F)(F)F)n1 (single isomer, unassigned) [Example 101, 2-[(1S,5S)- or (1R,5R)-3,6-diazabicyclo[3.2.1]oct-3-yl]-N-[1-methyl-3-(trifluoromethyl)-1H-pyrazol-4-yl]pyrrolo[2,1-f][1,2,4]triazine-7-carboxamide] | 6.56
